Experimental data taken from patent US5837728A, “9-cis retinoic acid esters and amides and uses thereof” (priority 1995, dated 1998).

Assays:
[1] = system: skin (inner forearm, cheek); experiment: Topical assay for comparative dermal irritation in human subjects; type: in vivo, human (patients); conditions: for Irritant reactions, inner forearm: first test, 0.025% solution; for Irritant reactions, inner forearm / Irritant reaction, inner forearm: twice daily for ten days; for Irritant reaction, inner forearm: second test, one subject of four reacted; for Irritant reaction, inner forearm / Irritation of the cheeks: 0.075% solution; for Irritation of the cheeks: third test, twice daily, six days
Experimental: 2-(9-cis-retinoyloxy)-4-methoxyacetophenone is evaluated in a study of its potential to produce dermal irritation. Comparisons are made of tretinoin, isotretinoin, 2-(9-cis-retinoyloxy)-4-methoxyacetophenone, and the vehicle solution.
In the first test, four solutions are used. The control consists of vehicle solution, namely a solution of 60% by volume ethanol and 40% by volume polyethylene glycol. The other three solutions are 0.025% solutions of tretinoin, isotretinoin, or 2-(9-cis-retinoyloxy)-4-methoxyacetophenone in 60% by volume ethanol and 40% by volume polyethylene glycol. Four patients paint two saturated cotton swabs of each of the four solutions on four different areas of the inner forearm, twice daily for ten days.
In the second test, four other solutions are used. The control consists of vehicle solution, namely a solution of 90% by volume ethanol and 10% by volume polyethylene glycol. The other three solutions are 0.075% solutions of tretinoin, isotretinoin, or 2-(9-cis-retinoyloxy)-4-methoxyacetophenonein 90% by volume ethanol and 10% by volume polyethylene glycol. Four patients paint two saturated cotton swabs of each of the four solutions on four different areas of the inner forearm, twice daily for ten days. Only one subject experiences an irritant reaction. […] By day nine, both areas are still reacting, the tretinoin area more intensely than the isotretinoin area. There is no reaction in either the 2-(9-cis-retinoyloxy)-4-methoxyacetophenone or the control areas.
In the third test, three solutions are used. The three solutions are 0.075% solutions of tretinoin, isotretinoin, or 2-(9-cis-retinoyloxy)-4-methoxyacetophenone in 90% by volume ethanol and 10% by volume polyethylene glycol. Four patients paint two saturated cotton swabs of the 2-(9-cis-retinoyloxy)-4-methoxyacetophenone solution twice daily on one cheek of their faces. To the other cheek they apply two saturated cotton swabs of either tretinoin or isotretinoin.
The tests are carried out in double-blind fashion, that is, neither the subjects nor the investigator know the contents of the solutions during the study.
Clinical assessments are made daily of the subjects cheeks. All subjects develop irritant reactions by the third or fourth day of the study.

sebaceous gland = experiment: Oral hamster sebaceous gland reduction assay; type: in vivo, male Syrian golden hamsters; design: key to the marks not given beside the values; conditions: 32 mg/kg
Experimental: An oral assay for hamster sebaceous gland reduction is conducted.
Hamsters are dosed orally with the test compound and vehicle alone. The reduction in sebaceous gland size is estimated microscopically in relation to the control. The assay is unique and proprietary to Ortho Pharmaceutical Corp. and is based upon the work of Plewig et al. (1977) and Gomex et al. (1980). Plewig, et al., Hamster Ear Model for Sebaceous Glands, J. Invest. Derm. 68: 171-176 (1977). Gomez, et al., Effect of 13-cis-Retinoic Acid on the Hamster Flank Organ, J. Invest. Derm. 74: 392-397 (1980).
For oral (p.o.) studies, male Syrian golden hamsters are […] at 5 ml/kg, once daily, five consecutive days/week for two or three weeks. Modified but similar dosing schedules could be used. Control hamsters are dosed with vehicle alone at 5 ml/kg. Following final treatment (up to 72 hours), the hamsters are sacrificed in a CO2 atmosphere. Samples of each test site are placed into 10% buffered formalin and histologically prepared. Serial sections of each sample are stained (H&E) and examined microscopically.
The reduction in sebaceous gland size is estimated microscopically in relation to the control treated sites. To quantify sebaceous gland size, cross-sectional areas are measured with an image analyzer system.

[2] = system: pseudocomedone (utriculus) of the rhino mouse; experiment: Topical rhino mouse pseudocomedone (utriculus) reduction assay; type: in vivo; design: Utriculus reduction (Table 1) / Utriculus reduction (Table 3): key to the marks not given beside the values; conditions: for Utriculus reduction (Table 1): 0.1% concentration, once daily 5 days/week for two weeks; for Utriculus reduction (Table 3): concentration 0.1 (unit not given); for Utriculus Reduction (Table 7): two weeks
Experimental: A topical assay to test for pseudocomedone (utriculus) reduction in the rhino mouse is conducted.
Each test compound and a vehicle control is applied topically to the dorsal trunk of the rhino mouse. The utriculus diameters are measured with a ocular micrometer. […] Kligman, et al., The Effect on Rhino Mouse Skin of Agents which Influence Keratinization and Exfoliation, J. Invest. Derm. […] Van Scott, Experimental Animal Integumental Models for Screening Potential Dermatologic Drugs, In Pharmacology of the Skin, eds. […] Mann, Hair Loss and Cyst Formation in Hairless and Rhino Mutant Mice, Anat. Rec. […] Mezick, et al., Topical and Systemic Effects of Retinoids on Horn-Filled Utriculus Size in the Rhino Mouse. A Model to Quantify Antikeratinizing Effects of Retinoids, J. Invest. Derm. […] Mezick, et al., Anti-Acne Activity of Retinoids in the Rhino Mouse, In Models in Dermatology, eds.
(§1) The dorsal trunk of the rhino mouse is the test site. Each test compound is dissolved in alcohol:propylene glycol (70:30, v:v) or other suitable vehicle and topically applied (0.1 ml) to the dorsal trunk once daily, five consecutive days/week for two weeks. Also, administration may be oral (p.o.) in a suitable vehicle. Following treatment, the animals are sacrificed by cervical dislocation. The treated dorsal trunk skin is removed from the animal and placed into 0.5% acetic acid for up to 18 hours at approximately 4° C. After this, the epidermis with the acne cysts is separated from the underlying dermis. The sheets of epidermis are processed by routine methods to permanent whole mounts for microscopic examination. Also, full-thickness samples may be taken, stained (H&E), and examined by light microscopy.
The utriculus diameters are measured with an ocular micrometer to compare effects of test compounds to vehicle control and/or reference compound on cyst reduction. Light microscopy is used to determine effects on cell differentiation.
Another topical assay is conducted following the procedure described above.
Each test compound and a vehicle control was applied topically to the dorsal trunk of the rhino mouse. The utriculus diameters are measured with a ocular micrometer. […] Kligman, et al., J. Invest. […] Van Scott, Pharmacology of the Skin, eds. […] Mann, Anat. […] Mezick, et al, J. Invest. […] Mezick et al., Models in Dermatology, eds.
as §1, with “(70:30,v:v)” for “(70:30, v:v)”, “weeks.” for “weeks. Also, administration may be oral (p.o.) in a suitable vehicle.”, “"acne cysts"” for “acne cysts”, “are” for “may be”, “(H&E)” for “(H&E),”, “microscope.” for “microscopy.”

Row | SMILES | Irritant reactions, inner forearm [1] | Irritant reaction, inner forearm [1] | Irritation of the cheeks [1] | Sebaceous gland reduction (sebaceous gland) | Utriculus reduction (Table 1) [2] | Utriculus reduction (Table 3) [2] | Utriculus Reduction (Table 7) ([2]; dose 0.0005%) | Utriculus Reduction (Table 7) ([2]; dose 0.005%) | Utriculus Reduction (Table 7) ([2]; dose 0.05%)
1 | CC1=C(/C=C/C(C)=C/C=C/C(C)=C/C(=O)O)C(C)(C)CCC1 [all-trans-retinoic acid, reference compound] | No irritant reactions occur | On day two, the tretinoin area begins reacting with redness and peeling | reactions which are so intense with redness and peeling that all subjects discontinue application on or before the sixth day | +++ | ++ | ++ | 34.1 | 49.9 | 72.8
2 | COc1ccc(C(=O)COC(=O)/C=C(C)/C=C/C=C(C)\C=C\C2=C(C)CCCC2(C)C)cc1 [Compound 2, 2-(9-cis-retinoyloxy)-4'-methoxyacetophenone] | No irritant reactions occur | no reaction | slightly irritated or not irritated at all | +++ | +++ | +++ |  |  | 
